In US6046212A, “Chalcone derivatives and drugs containing the same” (Kowa Co., Ltd., priority 1996, dated 2000):
Counter-ions that a name gives are not always drawn. Like-named read-outs stand apart in the source and are kept apart here.

Columns and labels:
[1] = tested on: isolated guinea pig ileum; experiment: Antileukotriene D4 Action (In vitro Test): isotonic contractive response of isolated ileum to leukotriene D4; assay type: cell-based; conditions: Cavia porcellus, 0.5 h, Krebs buffer 37° C., 30 minutes incubation with test compound, read-out: Anti-LTD4 action (IC50 value)
Protocol: Antileukotriene D4 Action (In vitro Test)
An isolated guinea pig ileum was cut into about 2 cm lengths. Each ileum piece was suspended in a 20-ml organ bath filled with the Krebs buffer. […] The Krebs buffer was controlled at 37° C., through which a mixed gas (95%O2 -5%CO2) was bubbled. First, leukotriene D4 was added to an organ bath to measure its dose-response. After the ileum piece was washed several times with the buffer, a test compound (will be identified by its example number; this will apply likewise hereinafter) of a predetermined specific concentration was added.

Leukotriene D4 Receptor = target: T1, Leukotriene D4 Receptor (Cavia porcellus, UniProt Q2NNR5); experiment: Leukotriene D4 Receptor Binding Inhibition Test; design: species or system guinea pig; conditions: for inhibition at 10 µM: read-out: LTD4 receptor, inhibition rate (%) at a high concentration
T1 construct: guinea pig pulmomembranous protein; from tissue; host or cells: guinea pig lung membranes
T1 sequence (Q2NNR5 1-340): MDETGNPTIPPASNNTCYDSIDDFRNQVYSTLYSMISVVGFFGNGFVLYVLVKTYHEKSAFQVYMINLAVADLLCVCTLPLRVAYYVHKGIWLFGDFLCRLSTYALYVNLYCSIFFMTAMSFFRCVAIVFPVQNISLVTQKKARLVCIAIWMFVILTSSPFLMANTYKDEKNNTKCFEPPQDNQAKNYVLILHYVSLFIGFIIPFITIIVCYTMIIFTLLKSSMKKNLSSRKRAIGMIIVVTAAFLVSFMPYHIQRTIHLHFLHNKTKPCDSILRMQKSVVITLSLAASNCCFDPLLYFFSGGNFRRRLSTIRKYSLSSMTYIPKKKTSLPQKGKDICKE
Protocol: An ice-cold tris hydrochloride/sodium chloride buffer (10 mM/100 mM, pH 7.5) was added to terminate the reaction, followed by immediate filtration through a Wattman CF/C filter. The filter was washed twice with 20 ml aliquots of the ice-cold buffer. The radio-activity of the residue was measured by a liquid scintillation counter. […] Using the Cheng-Prusoff formula, a dissociation constant (KD) was calculated from the IC50.

airway constriction = conditions: cited from earlier work
[2] = read-out: LTD4 receptor, dissociation constant KD

Compound: COc1ccc(C(=O)O)cc1C(=O)/C=C/c1ccc(OCc2ccc3ccccc3n2)cc1 [Example 29, 5'-Carboxy-2'-methoxy-4-[(2-quinolyl)methoxy]chalcone]
- IC50 [1]: 290 nM

Compound: [^3 H]leukotriene D4 [reference compound]
- slope of Hill plot (Leukotriene D4 Receptor; [^3 H]leukotriene D4 binding): 0.99
- Kd (Leukotriene D4 Receptor; read-out: dissociation constant (KD) of [^3 H]leukotriene D4, radioligand, guinea pig pulmomembranous protein): 0.262 nM

Compound: N#Cc1ccc(O)c(C(=O)/C=C/c2cccc(OCc3ccc4ccccc4n3)c2)c1 [Example 58, 5'-Cyano-2'-hydroxy-3-[(2-quinolyl)methoxy]chalcone]
- inhibition at 10 µM (Leukotriene D4 Receptor): 38%

Compound: O=C(O)c1ccc(O)c(C(=O)/C=C/c2ccccc2OCc2ccccc2)c1 [Example 6, 2-Benzyloxy-5'-carboxy-2'-hydroxychalcone]
- inhibition at 10 µM (Leukotriene D4 Receptor): 0%

Compound: O=C(O)c1cccc(C(=O)/C=C/c2cccc(C=Cc3ccc4ccccc4n3)c2)c1O [Example 40, 3'-carboxy-2'-hydroxy-3-[(2-quinolyl)-ethenyl]chalcone]
- IC50 [1]: 120 nM

Compound: O=C(O)c1cc(F)cc(C(=O)/C=C/c2ccc(OCc3ccc4ccccc4n3)cc2)c1O [Example 8, 3'-Carboxy-5'-fluoro-2'-hydroxy-4-[(2-quinolyl)methoxy]chalcone]
- Kd (Leukotriene D4 Receptor; [2]): 396 nM

Compound: O=C(O)c1ccc(O)c(C(=O)/C=C/c2ccc(OCc3ccccc3)cc2)c1 [Example 4, 4-Benzyloxy-5'-carboxy-2'-hydroxychalcone]
- inhibition at 10 µM (Leukotriene D4 Receptor): 23%

Compound: O=C(O)c1cc(Cl)cc(C(=O)/C=C/c2ccc(OCc3ccc4ccccc4n3)cc2)c1O [Example 9, 3'-Carboxy-5'-chloro-2'-hydroxy-4-[(2-quinolyl)methoxy]chalcone]
- Kd (Leukotriene D4 Receptor; [2]): 732 nM

Compound: N#Cc1cccc(C(=O)/C=C/c2ccc(OCc3ccc4ccccc4n3)cc2)c1 [Example 35, 3'-cyano-4-(2-quinolylmethoxy)-chalcone]
- inhibition at 10 µM (Leukotriene D4 Receptor): 8%

Compound: CCCCC/C=C\C\C=C/C=C/C=C/[C@@H](SC[C@H](NC(=O)CC[C@H](N)C(=O)O)C(=O)NCC(=O)O)[C@@H](O)CCCC(=O)O [LTC4]
- effects on airway constriction relative to histamine (airway constriction; when inhaled, compared with histamine): 1,000 times

Compound: CCOCCn1c(COc2cccc(C=CC(=O)c3ccc(C(=O)O)cc3O)c2)nc2ccccc21 [Example 37, 4'-Carboxy-3-[(1-ethoxyethyl-benzimidazol-2-yl)methoxy]-2'-hydroxychalcone.HCl]
- inhibition at 10 µM (Leukotriene D4 Receptor): 26%

Compound: CCOCCn1c(COc2ccc(C=CC(=O)c3cc(-c4nn[nH]n4)ccc3O)cc2)nc2ccccc21 [Example 23]
- IC50 [1]: 480 nM

Compound: O=C(O)c1cccc(C(=O)/C=C/c2ccc(OCc3ccc4ccccc4n3)cc2)c1O [Example 7, 3'-Carboxy-2'-hydroxy-4-[(2-quinolyl)methoxy]chalcone]
- Kd (Leukotriene D4 Receptor; [2]): 307 nM

Compound: N#Cc1cccc(C(=O)/C=C/c2cccc(OCc3ccc4ccccc4n3)c2)c1 [Example 36, 3'-Cyano-3-(2-quinolylmethoxy)-chalcone]
- inhibition at 10 µM (Leukotriene D4 Receptor): 6%

Compound: O=C(/C=C/c1ccc(OCc2ccc3ccccc3n2)cc1)c1cc(-c2nnn[nH]2)ccc1O [Example 19, 2'-Hydroxy-4-[(2-quinolyl)-methoxy]-5'-(5-tetrazolyl)-chalcone]
- IC50 [1]: 67 nM

Compound: O=C(O)c1ccc(O)c(C(=O)/C=C/c2ccccc2OCc2ccc3ccccc3n2)c1 [Example 3, 5'-Carboxy-2'-hydroxy-2-[(2-quinolyl)methoxy]chalcone]
- inhibition at 10 µM (Leukotriene D4 Receptor): 18%

Compound: CCOC(=O)c1ccc(O)c(C(=O)C=Cc2ccc(OCc3ccc4ccccc4n3)cc2)c1 [Example 17]
- inhibition at 10 µM (Leukotriene D4 Receptor): 16%

Compound: CCCCC/C=C\C\C=C/C=C/C=C/[C@@H](SC[C@H](N)C(=O)O)[C@@H](O)CCCC(=O)O [LTE4]
- duration of airway constriction (airway constriction; compared with that caused by the other leukotrienes): long lasting
- activity compared with the other leukotrienes (airway constriction; compared with the other leukotrienes): lower activities

Compound: O=C(/C=C/c1ccc(OCc2ccc3ccccc3c2)cc1)c1cc(-c2nnn[nH]2)ccc1O [Example 26, 2'-Hydroxy-4-(2-naphthyl-methoxy)-5'-(5-tetrazolyl)-chalcone]
- inhibition at 10 µM (Leukotriene D4 Receptor): 4%

Compound: CCCCOc1ccc(C(=O)O)cc1C(=O)C=Cc1ccc(OCc2ccc3ccccc3n2)cc1 [Example 32, 2'-n-Butoxy-5'-carboxy-4-(2-quinolylmethoxy)chalcone.HCl]
- inhibition at 10 µM (Leukotriene D4 Receptor): 41%
